According to article PMC8159961, “Exploring protein hotspots by optimized fragment pharmacophores” (Nature Communications, 2021):

Assays:
human 5-HT7b receptor = target: T1, human 5-HT7b receptor (Homo sapiens, UniProt P34969); assay: GPCR radioligand binding assay, [3H]-5-CT displacement, HEK293 membranes; details: for 5-HT7 % Inhibition by plate position: 10 µM; for %inh 5-HT7 average: average of exp_1 and exp_2; for %inh 5-HT7 exp_1: replicate exp_1; for %inh 5-HT7 exp_2: replicate exp_2
T1 construct: expressed in transfected cells
T1 sequence (P34969 1-432): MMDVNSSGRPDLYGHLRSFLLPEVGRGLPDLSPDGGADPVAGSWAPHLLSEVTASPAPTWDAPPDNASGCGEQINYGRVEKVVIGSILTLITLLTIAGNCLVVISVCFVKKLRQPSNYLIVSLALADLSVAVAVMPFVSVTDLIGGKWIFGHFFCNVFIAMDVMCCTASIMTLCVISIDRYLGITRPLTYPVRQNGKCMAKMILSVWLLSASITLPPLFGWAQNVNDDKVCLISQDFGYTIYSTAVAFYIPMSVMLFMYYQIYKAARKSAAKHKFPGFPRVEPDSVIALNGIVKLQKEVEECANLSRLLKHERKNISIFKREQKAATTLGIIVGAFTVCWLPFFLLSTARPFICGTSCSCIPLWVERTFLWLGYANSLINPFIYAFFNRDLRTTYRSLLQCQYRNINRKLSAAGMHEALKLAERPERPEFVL

human 5-HT1A receptor = target: T2, human 5-HT1A receptor (Homo sapiens, UniProt P08908); assay: GPCR radioligand binding assay, [3H]-8-OH-DPAT displacement, HEK293 membranes; details: for 5-HT1A % Inhibition by plate position: 10 µM; for %inh 5-HT1A average: average of exp_1 and exp_2; for %inh 5-HT1A exp_1: replicate exp_1; for %inh 5-HT1A exp_2: replicate exp_2; for %inh 5-HT1A corrected*: average, values below 0 and above 100% were set as 0 and 100
T2 construct: expressed in transfected cells
T2 sequence (P08908 1-422): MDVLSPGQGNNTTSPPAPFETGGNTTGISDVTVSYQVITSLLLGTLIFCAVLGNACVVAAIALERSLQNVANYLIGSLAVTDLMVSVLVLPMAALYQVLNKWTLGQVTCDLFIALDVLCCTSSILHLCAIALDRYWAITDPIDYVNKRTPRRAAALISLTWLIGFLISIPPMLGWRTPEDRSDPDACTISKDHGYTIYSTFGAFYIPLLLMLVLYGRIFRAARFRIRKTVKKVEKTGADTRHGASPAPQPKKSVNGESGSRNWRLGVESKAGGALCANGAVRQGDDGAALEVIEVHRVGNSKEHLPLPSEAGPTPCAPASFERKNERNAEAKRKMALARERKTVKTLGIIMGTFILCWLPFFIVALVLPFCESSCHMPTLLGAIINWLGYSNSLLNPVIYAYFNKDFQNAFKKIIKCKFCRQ

human 5-HT6 receptor = target: T3, human 5-HT6 receptor (Homo sapiens, UniProt P50406); assay: GPCR radioligand binding assay, [3H]-LSD displacement, HEK293 membranes; details: for 5-HT6 % Inhibition by plate position: 10 µM; for %inh 5-HT6 average: average of exp_1 and exp_2; for %inh 5-HT6 corrected*: average, values below 0 and above 100% were set as 0 and 100; for %inh 5-HT6 exp_1: replicate exp_1; for %inh 5-HT6 exp_2: replicate exp_2
T3 construct: expressed in transfected cells
T3 sequence (P50406 whole entry): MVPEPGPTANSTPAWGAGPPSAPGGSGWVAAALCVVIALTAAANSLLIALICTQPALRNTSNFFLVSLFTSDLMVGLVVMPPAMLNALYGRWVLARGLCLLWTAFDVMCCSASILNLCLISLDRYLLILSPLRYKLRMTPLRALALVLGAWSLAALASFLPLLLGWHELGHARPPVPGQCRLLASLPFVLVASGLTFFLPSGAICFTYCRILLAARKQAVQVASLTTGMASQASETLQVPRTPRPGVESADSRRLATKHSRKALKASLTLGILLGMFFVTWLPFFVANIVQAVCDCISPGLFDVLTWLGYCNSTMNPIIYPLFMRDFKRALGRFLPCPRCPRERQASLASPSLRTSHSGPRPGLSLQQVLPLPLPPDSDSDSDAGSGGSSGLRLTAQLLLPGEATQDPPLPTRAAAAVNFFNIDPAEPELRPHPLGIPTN

SMILES	5-HT7 % Inhibition by plate position (human 5-HT7b receptor) [%]	%inh 5-HT7 average (human 5-HT7b receptor) [%]	%inh 5-HT7 exp_1 (human 5-HT7b receptor) [%]	%inh 5-HT7 exp_2 (human 5-HT7b receptor) [%]	5-HT1A % Inhibition by plate position (human 5-HT1A receptor) [%]	%inh 5-HT1A average (human 5-HT1A receptor) [%]	%inh 5-HT1A exp_1 (human 5-HT1A receptor) [%]	%inh 5-HT1A exp_2 (human 5-HT1A receptor) [%]	5-HT6 % Inhibition by plate position (human 5-HT6 receptor) [%]	%inh 5-HT6 average (human 5-HT6 receptor) [%]	%inh 5-HT6 corrected* (human 5-HT6 receptor) [%]	%inh 5-HT6 exp_1 (human 5-HT6 receptor) [%]	%inh 5-HT6 exp_2 (human 5-HT6 receptor) [%]	%inh 5-HT1A corrected* (human 5-HT1A receptor) [%]
Cc1nc(-c2ccccc2)cs1 [A7]	0	-0.168	-4	3.71	0	-4.34	-13	4	50	50	50	50	50	
Cc1cc(-c2ccccc2)n[nH]1 [A8]	34		37	32		9	9	9	48	48	48	44	52	9
Brc1ccc(-c2ccon2)cc1 [A9]	5.57		1.16	10		3.49	4	3	34	34	34	40	29	3.49
COc1ccccc1N1CCNCC1 [A10]	72		67	76	100	102	101	103	69	69	69	80	58	
COc1ccccc1C1CCNCC1 [A11]	73		64	81		99	100	98	71	71	71	82	59	99
CS(=O)(=O)c1ccc(N2CCNCC2)cc1 [B1]	35		29	40		4.22	8.43	0	28	28	28	28	28	4.22
O=C1CNCCN1c1ccccc1 [B2]	0	-2.46	14	-19		4.62	9	0	47	47	47	50	44	4.62
O=C1CCCc2occc21 [B3]	0	-2.76	8	-14	0	-4.51	-9	0	34	34	34	37	30	
NC1CCc2ccccc21 (stereo not shown) [B4]	28		28	28		17	19	16	16	16	16	16	17	17
N[C@H]1c2ccccc2C[C@H]1CO [B5]	6		14	-1	0	-0.612	-19	18	25	25	25	25	25	
O=c1[nH]ncc2c1oc1ccccc12 [B6]	0	-4	3.34	-11	0	-6.46	-14	0.625	26	26	26	18	34	
O=C1NC(=O)C2(CCc3ccccc32)N1 (stereo not shown) [B7]	3.8		10	-2.31	0	-12	-22	-1.44	32	32	32	32	31	
CS(=O)(=O)c1ccc(OC(F)(F)F)cc1 [B8]	6		3.74	8	0	-30	-20	-40	4	4	4	0	8	
Cc1cnc(C(F)(F)F)cn1 [B9]	11		14	7		1.1	-7	9	32	32	32	32	33	1.1
